The record followed here is patent US8637496B2, “Compounds having a monogalactosyldiacylglycerol synthase inhibitory activity as herbicide or algaecide, herbicide and algaecide compositions” (Commissariat a l'Energie Atomique, priority 2007, dated 2014).

Structures can show the parent of a compound that is named as a salt. Where two headings read alike, the source gives them in different places.

Experiment [1] has as its target T1, MGDG synthase in isolated spinach chloroplast envelope membranes (Spinacia oleracea, UniProt Q9SM44).
T1 construct: envelope membranes purified from the lysate by sucrose centrifugation gradient; from tissue; host or cells: envelope membranes of chloroplasts from spinach leaves
T1 sequence (Q9SM44 99-522): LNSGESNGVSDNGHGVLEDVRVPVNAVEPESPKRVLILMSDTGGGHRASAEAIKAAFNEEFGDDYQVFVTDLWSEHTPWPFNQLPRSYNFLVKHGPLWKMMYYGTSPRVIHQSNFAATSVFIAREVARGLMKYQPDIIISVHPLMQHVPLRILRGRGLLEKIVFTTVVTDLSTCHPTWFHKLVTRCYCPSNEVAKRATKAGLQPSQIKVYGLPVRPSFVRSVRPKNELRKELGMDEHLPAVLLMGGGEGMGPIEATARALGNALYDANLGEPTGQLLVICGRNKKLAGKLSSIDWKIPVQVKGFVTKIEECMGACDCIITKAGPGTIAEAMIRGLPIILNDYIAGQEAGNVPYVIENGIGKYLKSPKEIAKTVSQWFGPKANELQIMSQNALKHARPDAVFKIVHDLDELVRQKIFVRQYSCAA
In words: MGDG synthase activity in envelope membrane fractions isolated from spinach chloroplasts. Type of experiment: biochemical. The gist of the method:
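Envelope membranes purified from Percoll-isolated spinach chloroplasts by hypotonic lysis and sucrose gradient; MGDG synthase activity measured per published protocol.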

Experiment [2] has as its target T2, spinach recombinant MGDG synthase (soMGD) (Spinacia oleracea, UniProt Q9SM44).
T2 construct: The cDNA fragments corresponding to the mature form of spinach MGDG synthase, soMGD1; made in house; host or cells: Escherichia coli BL21-DE3, pET-3a (NdeI-BamHI)
T2 sequence (Q9SM44 99-522): T1 sequence (Q9SM44 99-522)
In words: MGDG synthase enzymatic assay of recombinant spinach MGD protein in mixed micelles. Type of experiment: biochemical. Particulars: recombinant enzyme expressed in E. coli, FIG. 2, read-out: IC50, inhibition of spinach recombinant MGDG synthase (soMGD) activity. From the text:
The cDNA fragments corresponding to the mature form of spinach MGDG synthase, soMGD1 [accession number CAB56218], and from the three isoforms that are present in Arabidopsis, i.e. atMGD1 [accession number BAB12042], atMGD2 [accession number T52269] and atMGD3 [accession number BAB12041] were inserted into the pET-3a expression vector from Novagen, as described by Miège C. et al., Eur. J. Biochem, 1999, 265, 990-1001 and Awai K. et al., Proc. Natl. Acad. Sci. U.S.A., 2001, 98, 10960-10965. All MGD sequences used in this study were inserted in NdeI-BamHI cloning site of the pET-3a vector. Induction of recombinant proteins was achieved following the pET expression system procedure. Isolated colonies of transfected Escherichia coli (BL21-DE3) were inoculated in LB medium (2.5 ml, 100 μg/ml carbenicillin) and grown at 37° C. When OD600 reached 0.5, the cell suspension was transferred to 15 ml of LB medium ([…] carbenicillin) and grown at 37° C. until OD600 reached 0.5. […]
The MGDG synthase enzymatic assay was achieved as described by Maréchal E. et al., J. Biol. Chem., 1995, 270, 5714-5722. […] J. Biochem. Physiol., 1959, 37, 911-917 and the radioactivity of the [^14C]-labelled MGDG ultimately produced, determined by liquid scintillation counting. […]

Experiment [3] concerns Chlamydomonas reinhardtii. In words: Chlamydomonas reinhardtii growth assay. It counts as cell-based. Particulars: day three (d=3). The protocol:
An axenic suspension of Chlamydomonas reinhardtii (10 μl) is introduced in a liquid TAP medium (Tris-Acetate-Phosphate medium, as described by Rochaix et al., (The Molecular Biology of Chloroplasts and Mitochondria in Chlamydomeonas; Advances in Photosynthesis, (1998) Vol. 7. Kluwer Academic Publishers, Dordrecht, The Netherlands) with or without compound according to the invention. The compounds to be tested have been solubilized in dimethylsulfoxide (DMSO) and supplied directly in the growth medium, at concentrations ranging from 0 to 200 μM. Final concentration of DMSO in medium was 10%. Chlamydomonas suspensions were then grown at 20° C., under continuous light (50 μE.m^−2.s^−1). Growth was assessed by counting the algae in a 40 μl aliquot using a Malassez cell and examining the cell vitality by standard microscopic methods.
Control herbicide is Triclosan.

[4] abbreviates: Table 1, obtained in the same manner as FIG. 4, read-out: Inhibitory effect on MGDG synthesis in isolated spinach chloroplast envelope membranes.

For the compound `C[C@@H](COC(=O)N1CCC(n2c(=O)[nH]c3ccccc32)CC1)N(Cc1ccccc1)Cc1ccccc1` [Compound 7, (S)-2-(dibenzylamino)propyl 4-(1,2-dihydro-2-oxobenzo[d]imidazol-3-yl)piperidine-1-carboxylate], the IC50 in experiment [1] (setting [4]) turned out to be 45 µM; in experiment [1] (spinach chloroplast envelope membranes, FIG. 4, read-out: IC50, MGDG synthase activity in envelope membranes that surround chloroplasts), 10 µM; in experiment [2], 45 µM.

`O=C(OC1CN(C(c2ccccc2)c2ccccc2)C1)N1CCC(n2c(=O)[nH]c3ccccc32)CC1` [Compound 13, 1-benzhydrylazetidin-3-yl 4-(1,2-dihydro-2-oxobenzo[d]imidazol-3-yl)piperidine-1-carboxylate]: the IC50 in experiment [1] (setting [4]) was in the range of 100 to 500 µM. For the same compound, the “morphology of Chlamydomonas when incubated with compound (FIG. 6)” value (“morphology of Chlamydomonas” for short) in experiment [3] is “fails to divide”.

`O=C(OCCN(Cc1ccccc1)Cc1ccccc1)N1CCC(n2c(=O)[nH]c3ccccc32)CC1` [Compound 11, 2-(dibenzylamino)ethyl 4-(1,2-dihydro-2-oxobenzo[d]imidazol-3-yl)piperidine-1-carboxylate]: the IC50 in experiment [1] (setting [4]) was determined as 15 µM. The “morphology of Chlamydomonas” value in experiment [3] is “fails to divide”.

On to `O=c1[nH]c2ccccc2n1C1CCN(C(=S)OCCOCc2ccccc2)CC1` [Compound 20, O-2-(benzyloxy)ethyl 4-(1,2-dihydro-2-oxobenzo[d]imidazol-3-yl)piperidine-1-carbothioate], for which, in experiment [1] (setting [4]), the IC50 is 100 to 500 µM. For the same compound, the “morphology of Chlamydomonas” value in experiment [3] is “fails to divide”.

`O=C(OC[C@H](Cc1ccccc1)N(Cc1ccccc1)Cc1ccccc1)N1CCC(n2c(=O)[nH]c3ccccc32)CC1` [Compound 8, (S)-2-(dibenzylamino)-3-phenylpropyl 4-(1,2-dihydro-2-oxobenzo[d]imidazol-3-yl)piperidine-1-carboxylate]: the results for the IC50 in experiment [1] (setting [4]) and in experiment [2] were 10 µM and 100 µM, respectively.

As for `C[C@@H](COC(=O)N1CCC(n2c(=O)[nH]c3ccccc32)CC1)N(CCCc1ccccc1)Cc1ccccc1` [Compound 52, (S)-2-(benzyl(3-phenylpropyl)amino)propyl 4-(2-oxo-2,3-dihydro-1H-benzo[d]imidazol-1-yl)piperidine-1-carboxylate hydrochloride], the IC50 in experiment [1] (setting [4]) was 60 µM.

In the case of `O=C(CCCN(Cc1ccccc1)Cc1ccccc1)N1CCC(n2c(=O)[nH]c3ccccc32)CC1` [Compound 24, 1-[1-(4-Dibenzylamino-butyryl)-piperidin-4-yl]-1,3-dihydro-benzoimidazol-2-one], in experiment [1] (setting [4]), the IC50 was found to be 25 µM.

With `C[C@@H](COC(=O)N1CCC(n2c(=O)[nH]c3ccccc32)CC1)N(Cc1ccccc1)Cc1cccc(OCc2ccccc2)c1` [Compound 60, (S)-2-(benzyl(3-(benzyloxy)benzyl)amino)propyl 4-(2-oxo-2,3-dihydro-1H-benzo[d]imidazol-1-yl)piperidine-1-carboxylate hydrochloride], the IC50 in experiment [1] (setting [4]) was 12 µM.
